Measurements as given in patent US20260335279A1, “METHODS OF TREATING ISCHEMIA-REPERFUSION INJURIES” (University of Cincinnati, priority 2022, published 2026).

Experiments:
Ugdh = Ugdh levels after I/R; type: in vivo, mouse; conditions: among the three groups, ML-264 treatment
Experimental: The myocardial ischemia/reperfusion surgical protocol was applied as follows. Mice were anesthetized with 2% isoflurane inhalation until anesthesia was achieved. The animals' body temperature was maintained at 37 °C throughout the surgical procedure using a heating pad. A tracheal tube was placed via tracheal intubation and the respiration rate was set at 150 strokes/min with a tidal volume of 200 μL, using Minivent ventilator for mice (Model 845, Harvard Apparatus). A 1.2 cm incision was made over the left chest. After retraction of the pectoral major and minor muscles, the fourth intercostal space was exposed. […] The mouse was then monitored during the recovery period, which was generally completed within 3 to 5 minutes. […]
Total RNA was purified from heart tissue using the TRIzol reagent according to the instructions of the manufacturer (ThermoFischer Scientific, Cat. No.: 15596018). cDNA synthesis was performed using the Applied Biosystems High Capacity cDNA Reverse Transcription Kit (ThermoFischer Scientific, Cat. No.: 4368814) from 500 ng RNA, which had been treated with DNAase I (ThermoFischer Scientific, Cat. No.: 18068015). Quantitative real-time PCR was performed with the SYBR Select Master Mix (ThermoFischer Scientific, Cat. No.: 4472903) using the manufacturer's recommendations. […]

[1] = tested on: myocardial ischemia-reperfusion injury in mice; experiment: 2D echocardiography (cardiac function) in murine myocardial ischemia-reperfusion injury; type: in vivo, mouse (C57BL/6); conditions: 30 min ischemia
Experimental: Cardiac function was assessed by transthoracic echocardiography using the VisualSonics Vevo F2 system (VisualSonics, Toronto, ON). Sedation was induced by 3% isoflurane and maintained at 0.5% isoflurane during the procedure, during which the animals were placed on a heated table under a lamp at approximately 37 °C. Parasternal long axis (PSLAX) and short axis (SAX) images were recorded and then analyzed on a separate workstation with VevoLab software (Vevo 2100, v1.6, Visualsonic, Toronto, Canada). From the M-mode images, left ventricular cavity size for systole and diastole (LV dia;s, LV dia;d, LV Vol;s and LV Vol;d) were measured. Heart rate (HR), stroke volume (SV), and the echocardiographic calculation for fractional shortening (FS), ejection fraction (EF) and cardiac output (CO) were obtained using the Vevo software. Treatment and control groups were analyzed on the same day by the same technician in order to minimize variation. For VevoStrain analysis, B-mode images of 300 frames at greater than 200 frames/second were used.
The myocardial ischemia/reperfusion surgical protocol was applied as follows. Mice were anesthetized with 2% isoflurane inhalation until anesthesia was achieved. […] The mouse was then monitored during the recovery period, which was generally completed within 3 to 5 minutes. […]

Compound: CN(C(=O)CNC(=O)/C=C/c1cccc(Cl)c1)C1CCS(=O)(=O)CC1 [ML264]
- Ugdh levels (Ugdh): no effect
- ejection fraction (4 weeks) ([1]; 4 weeks reperfusion, two doses of ML264 at early reperfusion, vs IR vehicle): significant preservation
- ejection fraction ([1]; 24 h reperfusion, 25 mg/kg/12 h intraperitoneal, first dose 5 min before reopening of coronary artery, vs vehicle): significant preservation
